Measured values reported in article PMC12337661, “PIEZO1 mechanical insensitivity in generalized lymphatic dysplasia with the potential for pharmacological rescue” (iScience, 2025).

Biological target: T1, WT mPIEZO1 (Mus musculus, UniProt E2JF22)
T1 construct: expressed in transfected cells
Assay: Long substance exposure and hypo-osmolality protocol Ca2+ assay
Assay type: cell-based
Details: 10 µM
Protocol: For intracellular Ca^2+ assays, cells were plated at 80–90% confluence in 96-well plates 24 h prior to recordings (6–8 × 10^4 cells per well). […] Cells were washed with SBS and incubated at room temperature for 20 min prior to recordings. Equal volumes of 2x concentrated compounds were injected to test for acute channel activation. Pre-incubation with compounds occurred during the 20 min prior to recordings. To expose cell membranes to hypo-osmolality, an equal volume of hypotonic SBS (containing only 35 mM NaCl) was injected onto the cells. Measurements were made on a fluorescence plate reader (Flexstation III, Molecular Devices) at room temperature (21 ± 2°C). Fura-2 was excited at 340 nm and 380 nm and emitted light collected at 510 nm, with measurements shown as the change in fluorescence (F) ratio (ΔF340/380).
SI Figure S5: Hypo-osm ol al it y test in the Ca2+ assay, referred to in the main paper
(a) Typical 96-well plate mean ± s.e.m. data for changes in intracellular Ca2+ evoked by hypotonic (35 mM NaCl) or normotonic (135 mM NaCl) medium for WT- or Empty vector-transfected cells in increasing concentrations of Yoda1 as indicated and colour -coded on t he right (representative of n = 3-6 independent experiments). […]

T1 sequence (E2JF22 whole entry): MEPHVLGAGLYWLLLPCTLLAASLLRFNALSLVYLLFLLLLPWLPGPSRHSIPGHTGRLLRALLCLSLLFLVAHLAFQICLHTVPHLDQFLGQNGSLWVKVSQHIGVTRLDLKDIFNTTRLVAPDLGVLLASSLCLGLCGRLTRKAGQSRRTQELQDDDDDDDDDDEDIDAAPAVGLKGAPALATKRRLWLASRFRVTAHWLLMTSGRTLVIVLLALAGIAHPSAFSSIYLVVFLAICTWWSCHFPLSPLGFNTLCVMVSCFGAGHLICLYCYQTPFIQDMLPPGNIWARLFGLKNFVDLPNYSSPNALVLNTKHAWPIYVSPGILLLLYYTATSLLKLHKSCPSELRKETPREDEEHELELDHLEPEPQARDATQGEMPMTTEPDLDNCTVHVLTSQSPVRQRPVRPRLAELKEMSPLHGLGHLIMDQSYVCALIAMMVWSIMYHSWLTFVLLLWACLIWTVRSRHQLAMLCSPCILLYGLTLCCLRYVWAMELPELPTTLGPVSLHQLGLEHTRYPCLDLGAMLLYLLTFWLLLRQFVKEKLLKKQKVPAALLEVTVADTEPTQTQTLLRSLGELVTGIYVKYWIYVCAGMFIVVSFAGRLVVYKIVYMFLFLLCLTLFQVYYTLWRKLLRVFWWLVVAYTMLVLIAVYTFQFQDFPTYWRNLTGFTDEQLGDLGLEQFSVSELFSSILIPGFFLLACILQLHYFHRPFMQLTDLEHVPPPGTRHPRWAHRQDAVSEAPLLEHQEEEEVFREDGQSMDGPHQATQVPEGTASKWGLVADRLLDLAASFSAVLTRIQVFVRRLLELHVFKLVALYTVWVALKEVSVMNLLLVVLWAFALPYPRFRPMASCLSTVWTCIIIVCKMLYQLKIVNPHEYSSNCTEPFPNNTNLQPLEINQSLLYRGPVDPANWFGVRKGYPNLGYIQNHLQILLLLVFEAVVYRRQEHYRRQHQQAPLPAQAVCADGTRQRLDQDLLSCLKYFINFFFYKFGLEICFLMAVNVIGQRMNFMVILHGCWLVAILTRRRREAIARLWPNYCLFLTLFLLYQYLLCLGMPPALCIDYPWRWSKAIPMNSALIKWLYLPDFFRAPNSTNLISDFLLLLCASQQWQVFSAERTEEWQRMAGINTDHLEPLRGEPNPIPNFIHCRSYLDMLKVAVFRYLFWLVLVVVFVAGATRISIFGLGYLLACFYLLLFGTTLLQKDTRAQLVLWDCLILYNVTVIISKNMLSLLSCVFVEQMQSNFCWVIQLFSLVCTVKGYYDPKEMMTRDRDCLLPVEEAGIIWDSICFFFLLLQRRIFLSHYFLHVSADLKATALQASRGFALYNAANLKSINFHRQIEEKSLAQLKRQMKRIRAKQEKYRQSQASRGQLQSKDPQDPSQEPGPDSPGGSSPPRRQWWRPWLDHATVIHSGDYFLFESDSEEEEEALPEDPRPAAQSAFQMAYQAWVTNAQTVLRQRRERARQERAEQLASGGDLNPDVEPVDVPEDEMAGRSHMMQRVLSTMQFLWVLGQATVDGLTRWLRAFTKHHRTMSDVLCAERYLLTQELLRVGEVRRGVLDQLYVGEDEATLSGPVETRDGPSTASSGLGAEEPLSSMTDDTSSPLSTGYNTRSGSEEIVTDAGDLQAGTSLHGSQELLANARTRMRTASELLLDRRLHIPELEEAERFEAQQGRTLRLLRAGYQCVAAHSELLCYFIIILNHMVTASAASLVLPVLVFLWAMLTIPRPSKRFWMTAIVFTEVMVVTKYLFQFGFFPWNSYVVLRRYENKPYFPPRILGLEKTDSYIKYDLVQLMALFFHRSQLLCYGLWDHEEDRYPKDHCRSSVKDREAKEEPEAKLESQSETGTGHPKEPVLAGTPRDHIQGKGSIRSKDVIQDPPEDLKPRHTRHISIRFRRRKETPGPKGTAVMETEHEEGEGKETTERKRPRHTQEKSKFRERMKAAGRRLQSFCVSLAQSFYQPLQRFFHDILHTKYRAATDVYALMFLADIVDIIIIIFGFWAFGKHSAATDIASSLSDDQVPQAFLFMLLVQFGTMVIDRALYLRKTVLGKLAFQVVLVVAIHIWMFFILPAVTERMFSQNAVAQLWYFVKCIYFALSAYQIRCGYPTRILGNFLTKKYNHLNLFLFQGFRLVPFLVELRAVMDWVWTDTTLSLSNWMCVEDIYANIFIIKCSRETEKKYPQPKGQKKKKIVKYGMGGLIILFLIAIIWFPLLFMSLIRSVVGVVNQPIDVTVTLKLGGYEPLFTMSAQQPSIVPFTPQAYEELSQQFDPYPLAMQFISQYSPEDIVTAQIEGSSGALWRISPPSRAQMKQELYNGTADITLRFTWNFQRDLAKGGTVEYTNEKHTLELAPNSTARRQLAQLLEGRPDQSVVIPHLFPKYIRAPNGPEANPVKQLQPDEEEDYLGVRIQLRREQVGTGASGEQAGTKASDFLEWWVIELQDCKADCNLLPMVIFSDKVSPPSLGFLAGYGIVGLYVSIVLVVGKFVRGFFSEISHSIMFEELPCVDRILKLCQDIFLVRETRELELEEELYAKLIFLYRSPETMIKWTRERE

Structure (SMILES): Nc1ccc(-c2nnc(SCc3c(Cl)cccc3Cl)s2)cc1 [KC146, 4-(5-((2,6-dichlorobenzyl)thio)-1,3,4-thiadiazol-2-yl)aniline]
- assay interference: caused a fluorescence artefact
